“And” between values parts separate entries of the source, which are not always exact repeats. Equal values may be shown once.
Experiment: Phase 1a single ascending dose study: UV-4 plasma concentrations and PK parameters (LC-MS/MS, noncompartmental)
Assay type: in vivo
Conditions: human plasma
Experimental: UV-4 ((2R,3R,4R,5S)-2-(hydroxymethyl)-1-(9-methoxynonyl)piperidine-3,4,5-triol, also called N-(9’-methoxynonyl)-1-deoxynojirimycin, or MON-DNJ) hydrochloride was evaluated in a first-in-human, randomized, single-center, double-blind, placebo-controlled, parallel group, single ascending dose Phase 1a clinical trial in healthy subjects (Figs 1 and 2, ClinicalTrials.gov Identifier NCT02061358 https://clinicaltrials.gov/ct2/show/NCT02061358). The primary objective was to determine the safety and tolerability of a single-ascending oral dose of UV-4 hydrochloride (Fig 3). […] The secondary objective was to determine PK parameters describing absorption and elimination of UV-4 following a single oral dose of UV-4 hydrochloride. Eight cohorts of eight subjects each were enrolled and completed the study. In each cohort, six subjects received UV-4 as the hydrochloride; two received placebo. Subjects were screened against study eligibility criteria up to four weeks (Days -28 to -2) before admission to the clinic (Day -1). Dosing was performed on an inpatient basis. Subjects remained in clinic for 48 hours post-dosing for PK sample collection and safety assessments and were discharged from the clinic on Day 3. Subjects returned to the clinic on Day 4 for additional safety assessments, then again on Day 9 ± 1 for a final follow-up visit.
Eligible subjects were healthy males and females, age 18–45 years, with a body mass index between 18 and 30 kg/m^2 inclusive and a minimum body weight of 60 kg. Subjects were considered healthy based on medical history, physical exam, vital signs, 12-lead electrocardiogram (ECG), clinical laboratory tests (hematology, blood chemistry, urinalysis), viral serology, and drug and alcohol screening. Male and female subjects of childbearing potential were required to use adequate contraception over the course of the clinical trial. […] Only subjects who met all inclusion and none of the exclusion criteria prior to administration of the investigational product were enrolled into the study (no exemptions were granted). A total of 64 subjects were enrolled (eight cohorts of eight subjects each). In each of the eight cohorts, six subjects were randomized to receive a single dose of UV-4 (3 to 1000 mg, depending on cohort) as the hydrochloride salt, and two subjects to receive placebo. Cohort size of six active subjects was based on analysis that increasing cohort size above six in a first-in-human study gains little in the ability to observe a drug induced event, and results in observing more events that are not related to study drug. Two of the eight subjects in each cohort (sentinel subjects; one active and one placebo) received their doses at least 48 h before the remaining subjects in each cohort.
On each day of use, bulk drug substance (UV-4B for solubilization, SAI Life Sciences Ltd. Telangana, India) was removed from a single-use container, weighed at the study center, and solubilized in 20 mL sterile water for injection (SWFI) (Hospira Inc. Illinois, United States of America). Weight of solid drug substance was converted to dose of UV-4 by applying purity and salt correction factor per pharmacy manual when preparing the dosing solution. UV-4B solution was administered orally with 10 mL of taste-masking agent, OraSweet-SF (Paddock Laboratories LLC, Minneapolis, United States of America) in a total volume of 30 mL, to assist in maintaining study blinding. Placebo was SWFI (20 mL) plus OraSweet-SF (10 mL). Concentrations and doses were calculated and expressed as the active free base form, UV-4. This methodology is consistent with USP<1121>, which recommends that the strength of a drug product or preparation is expressed in terms of the active moiety. Following consumption of active or placebo solution, the dosing container was rinsed with 50 mL of tap water also consumed by subjects. […]

Which results are given for `COCCCCCCCCCN1C[C@H](O)[C@@H](O)[C@H](O)[C@H]1CO` [UV4]?
CONCENTRATION UV4 (Cohort 2, nominal day 1, nominal hour 0): <LLOQ (0.500) ng/mL; CONCENTRATION UV4 (Cohort 3, nominal day 1, nominal hour 0): <LLOQ (0.500) ng/mL; CONCENTRATION UV4 (Cohort 4, nominal day 1, nominal hour 0): <LLOQ (0.500) ng/mL; CONCENTRATION UV4 (Cohort 4, nominal day 1, nominal hour 0, individual subjects): <LLOQ (0.500) ng/mL and 0.569 ng/mL and 1.02 ng/mL; CONCENTRATION UV4 (Cohort 4, nominal day 1, nominal hour 0, subjects with all post-dose samples <LLOQ (treatment arm not given)): 0.657 ng/mL; CONCENTRATION UV4 (Cohort 4, nominal day 1, nominal hour 0.5): <LLOQ (0.500) ng/mL; CONCENTRATION UV4 (Cohort 4, nominal day 1, nominal hour 0.5, individual subjects): 439 ng/mL and 598 ng/mL and 942 ng/mL and 1250 ng/mL and 160 ng/mL; CONCENTRATION UV4 (Cohort 4, nominal day 1, nominal hour 0.5, subjects with all post-dose samples <LLOQ (treatment arm not given)): <LLOQ (0.500) ng/mL; CONCENTRATION UV4 (Cohort 4, nominal day 1, nominal hour 1): <LLOQ (0.500) ng/mL; CONCENTRATION UV4 (Cohort 4, nominal day 1, nominal hour 1, individual subjects): 589 ng/mL and 571 ng/mL and 858 ng/mL and 762 ng/mL and 642 ng/mL; CONCENTRATION UV4 (Cohort 4, nominal day 1, nominal hour 1, subjects with all post-dose samples <LLOQ (treatment arm not given)): <LLOQ (0.500) ng/mL; CONCENTRATION UV4 (Cohort 4, nominal day 1, nominal hour 1.5): <LLOQ (0.500) ng/mL; CONCENTRATION UV4 (Cohort 4, nominal day 1, nominal hour 1.5, individual subjects): 754 ng/mL and 487 ng/mL and 860 ng/mL and 621 ng/mL and 699 ng/mL; CONCENTRATION UV4 (Cohort 4, nominal day 1, nominal hour 1.5, subjects with all post-dose samples <LLOQ (treatment arm not given)): <LLOQ (0.500) ng/mL; CONCENTRATION UV4 (Cohort 4, nominal day 1, nominal hour 2): <LLOQ (0.500) ng/mL; CONCENTRATION UV4 (Cohort 4, nominal day 1, nominal hour 2, individual subjects): 583 ng/mL and 406 ng/mL and 636 ng/mL and 479 ng/mL and 610 ng/mL; CONCENTRATION UV4 (Cohort 4, nominal day 1, nominal hour 2, subjects with all post-dose samples <LLOQ (treatment arm not given)): <LLOQ (0.500) ng/mL; CONCENTRATION UV4 (Cohort 4, nominal day 1, nominal hour 2.5): <LLOQ (0.500) ng/mL; CONCENTRATION UV4 (Cohort 4, nominal day 1, nominal hour 2.5, individual subjects): 516 ng/mL and 439 ng/mL and 447 ng/mL and 365 ng/mL and 519 ng/mL; CONCENTRATION UV4 (Cohort 4, nominal day 1, nominal hour 2.5, subjects with all post-dose samples <LLOQ (treatment arm not given)): <LLOQ (0.500) ng/mL; CONCENTRATION UV4 (Cohort 4, nominal day 1, nominal hour 3): <LLOQ (0.500) ng/mL; CONCENTRATION UV4 (Cohort 4, nominal day 1, nominal hour 3, individual subjects): 495 ng/mL and 428 ng/mL and 393 ng/mL and 327 ng/mL and 437 ng/mL; CONCENTRATION UV4 (Cohort 4, nominal day 1, nominal hour 3, subjects with all post-dose samples <LLOQ (treatment arm not given)): <LLOQ (0.500) ng/mL; CONCENTRATION UV4 (Cohort 4, nominal day 1, nominal hour 4): <LLOQ (0.500) ng/mL; CONCENTRATION UV4 (Cohort 4, nominal day 1, nominal hour 4, individual subjects): 368 ng/mL and 298 ng/mL and 302 ng/mL and 236 ng/mL and 338 ng/mL; CONCENTRATION UV4 (Cohort 4, nominal day 1, nominal hour 4, subjects with all post-dose samples <LLOQ (treatment arm not given)): <LLOQ (0.500) ng/mL; CONCENTRATION UV4 (Cohort 4, nominal day 1, nominal hour 6): <LLOQ (0.500) ng/mL; CONCENTRATION UV4 (Cohort 4, nominal day 1, nominal hour 6, individual subjects): 184 ng/mL and 187 ng/mL and 216 ng/mL and 141 ng/mL and 189 ng/mL; CONCENTRATION UV4 (Cohort 4, nominal day 1, nominal hour 6, subjects with all post-dose samples <LLOQ (treatment arm not given)): <LLOQ (0.500) ng/mL; CONCENTRATION UV4 (Cohort 4, nominal day 1, nominal hour 9): <LLOQ (0.500) ng/mL; CONCENTRATION UV4 (Cohort 4, nominal day 1, nominal hour 9, individual subjects): 101 ng/mL and 118 ng/mL and 128 ng/mL and 70.4 ng/mL and 77.3 ng/mL; CONCENTRATION UV4 (Cohort 4, nominal day 1, nominal hour 9, subjects with all post-dose samples <LLOQ (treatment arm not given)): <LLOQ (0.500) ng/mL; CONCENTRATION UV4 (Cohort 4, nominal day 1, nominal hour 12): <LLOQ (0.500) ng/mL; CONCENTRATION UV4 (Cohort 4, nominal day 1, nominal hour 12, individual subjects): 54.3 ng/mL and 66.4 ng/mL and 79.7 ng/mL and 42.1 ng/mL and 37.6 ng/mL; CONCENTRATION UV4 (Cohort 4, nominal day 1, nominal hour 12, subjects with all post-dose samples <LLOQ (treatment arm not given)): <LLOQ (0.500) ng/mL; CONCENTRATION UV4 (Cohort 4, nominal day 1, nominal hour 18): <LLOQ (0.500) ng/mL; CONCENTRATION UV4 (Cohort 4, nominal day 1, nominal hour 18, individual subjects): 18.1 ng/mL and 34.0 ng/mL and 43.3 ng/mL and 16.6 ng/mL; CONCENTRATION UV4 (Cohort 4, nominal day 1, nominal hour 18, subjects with all post-dose samples <LLOQ (treatment arm not given)): <LLOQ (0.500) ng/mL; CONCENTRATION UV4 (Cohort 4, nominal day 2, nominal hour 24, individual subjects): 12.5 ng/mL and 26.6 ng/mL and 30.8 ng/mL and 10.2 ng/mL; CONCENTRATION UV4 (Cohort 4, nominal day 2, nominal hour 24, subjects with all post-dose samples <LLOQ (treatment arm not given)): <LLOQ (0.500) ng/mL; CONCENTRATION UV4 (Cohort 4, nominal day 2, nominal hour 36, individual subjects): 4.31 ng/mL and 11.5 ng/mL and 12.0 ng/mL and 3.22 ng/mL; CONCENTRATION UV4 (Cohort 4, nominal day 2, nominal hour 36, subjects with all post-dose samples <LLOQ (treatment arm not given)): <LLOQ (0.500) ng/mL; CONCENTRATION UV4 (Cohort 4, nominal day 3, nominal hour 48, individual subjects): 2.04 ng/mL and 4.82 ng/mL and 6.34 ng/mL and 1.52 ng/mL; CONCENTRATION UV4 (Cohort 4, nominal day 3, nominal hour 48, subjects with all post-dose samples <LLOQ (treatment arm not given)): <LLOQ (0.500) ng/mL

— paper PMC9387934, “Randomized single oral dose phase 1 study of safety, tolerability, and pharmacokinetics of Iminosugar UV-4 Hydrochloride (UV-4B) in healthy subjects” (PLoS Neglected Tropical Diseases, 2022)
